The molecules below were run against T1, human 5-HT1A serotonergic receptor (Homo sapiens, UniProt P08908) (assay: Binding to recombinant human 5-HT1A receptors ([3H]8-OH-DPAT, HeLa cell membranes)). Conditions: read-out: Binding affinity for the 5-HT1A receptor, Ki.
T1 construct: expressed in transfected cells; host or cells: HeLa (stably transfected)
T1 sequence (P08908 1-422): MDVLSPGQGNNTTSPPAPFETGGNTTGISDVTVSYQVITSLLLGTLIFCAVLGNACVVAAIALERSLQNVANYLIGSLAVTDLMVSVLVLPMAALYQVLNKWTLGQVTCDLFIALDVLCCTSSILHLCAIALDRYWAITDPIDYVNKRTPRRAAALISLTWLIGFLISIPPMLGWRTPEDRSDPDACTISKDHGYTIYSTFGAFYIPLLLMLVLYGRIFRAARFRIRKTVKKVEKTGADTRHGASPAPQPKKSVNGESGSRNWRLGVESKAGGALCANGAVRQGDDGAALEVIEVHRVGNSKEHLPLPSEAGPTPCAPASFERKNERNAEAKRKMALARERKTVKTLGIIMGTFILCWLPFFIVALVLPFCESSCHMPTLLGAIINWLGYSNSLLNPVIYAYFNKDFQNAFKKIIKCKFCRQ
Procedure: Genomic clone G-21 coding for the human 5-HT1A serotonergic receptor is stably transfected in a human cell line (HeLa). HeLa cells were grown as monolayers in Dulbecco's modified Eagle's medium (DMEM), supplemented with 10% fetal calf serum and gentamicin ([…]), 5% CO2 at 37° C. Cells were detached from the growth flask at 95% confluence by a cell scraper and were lysed in ice-cold 5 mM Tris and 5 mM EDTA buffer (pH 7.4). Homogenates were centrifuged at 40000×g×20 min and pellets were resuspended in a small volume of ice-cold 5 mM Tris and 5 mM EDTA buffer (pH 7.4) and immediately frozen and stored at −70° C. until use. On the day of experiment, cell membranes were resuspended in binding buffer: 50 mM Tris HCl (pH 7.4), 2.5 mM MgCl2, 10 μM pargiline (Fargin et al., Nature 335, 358-360, 1988). Membranes were incubated in a final volume of 1 ml for 30 min at 30° C. with 0.2-1 nM [3H]8-OH-DPAT, in absence or presence of competing drugs; non-specific binding was determined in the presence of 10 μM 5-HT. The incubation was stopped by addition of ice-cold Tris-HCl buffer and rapid filtration through 0.2% polyethyleneimine pretreated Whatman GF/B or Schleicher & Schuell GF52 filters.
The inhibition of specific binding of the radioligands by the tested drugs was analyzed to estimate the IC50 value by using the non-linear curve-fitting program Allfit (De Lean et al., Am. J. Physiol. 235, E97-E102, 1978). The IC50 value was converted to an affinity constant (Ki) by the equation of Cheng & Prusoff (Cheng, Y. C.; Prusoff, W. H. Biochem. Pharmacol. 22, 3099-3108, 1973).

Structure (SMILES)	Ki [nM]
COc1cc(O)ccc1N1CCN(CCN(C(=O)C2CCCCC2)c2ccccc2OC(F)(F)F)CC1 [Example 93, 1[N-cyclohexylcarbonyl-N-(2-trifluoromethoxyphenyl)-2-aminoethyl]-4-(4-hydroxy-2-methoxyphenyl)piperazine]	1.6
COc1cc(OC(C)=O)ccc1N1CCN(CCN(C(=O)C2CCCCC2)c2ccccc2OC(F)(F)F)CC1 [Example 94, 1-[N-cyclohexylcarbonyl-N-(2-trifluoromethoxyphenyl)-2-aminoethyl]-4-(4-acetoxy-2-methoxyphenyl)piperazine]	2.14
COc1cc(OC(=O)C(C)C)ccc1N1CCN(CCN(C(=O)C2CCCCC2)c2ccccc2OC(F)(F)F)CC1 [Example 96, 1-[N-cyclohexylcarbonyl-N-(2-trifluoromethoxyphenyl)-2-aminoethyl]-4-[4-(2-methylpropionyloxy)-2-methoxyphenyl]piperazine]	1.2

Source: US20020193383A1, “1-(N-phenylalkylaminoalkyl)piperazine derivatives substituted at position 2 of the phenyl ring” (Recordati S.A., Chemical and Pharmaceutical Comoany, priority 1997, published 2002)
